Test results from patent US9561220B2, “Group of alkaloids, the novel autophagic enhancers for treatment of cancers and neurodegenerative conditions thereof” (Macau University of Science and Technology, priority 2014, dated 2017).
pIC50: −log10 of the molar value. Like-named read-outs stand apart in the source and are kept apart here.

What was measured:
[1] = tested on: panel of human cancer cells (HeLa, MCF-7, HepG2, Hep3B, H1299, A549, PC3); test: cells; format: cell-based
Protocol: The test compounds of liensinine, isoliensinine, dauricine, cepharanthine, hernandezine and thalidezine were dissolved in DMSO at a final concentration of 100 mmol/L and stored at −20° C. Cytotoxicity was assessed using the 3-(4,5-dimethylthiazol-2-yl)-2,5-diphenyltetrazolium bromide assay as described previously. 4000-8000 HeLa (human cervical cancer), MCF-7 (human breast cancer), HepG2 (human liver cancer), Hep3B (human liver cancer), H1299 (human lung cancer), A549 (human lung cancer), PC3 (human prostate cancer) and LO2 (human normal liver) cells were seeded on 96-well plates per well. After overnight pre-incubation, the cells were exposed to different concentrations of liensinine, isoliensinine, dauricine, cepharanthine, hernandezine and thalidezine (0.039-100 μmol/L) for 3 days. Specifically, the following concentrations are used for all of the above alkaloids: […], 0.039 μmol/L. Subsequently, 10 μL of MTT reagents was added to each well and incubated at 37° C. for 4 hours followed by the addition of 100 μL solubilization buffer (10% SDS in 0.01 mol/L HCl) and overnight incubation. Absorbance at 585 nm was determined from each well on the following day. The percentage of cell viability was calculated using the following formula: Cell viability (%)=Cells number treated/Cells number DMSO control×100. Data was obtained from three independent experiments.

[2] = tested on: autophagy deficient cells (Atg7−/− or Atg7-ko) MEFs; test: Annexin V / propidium iodide flow cytometry in Atg7 wild-type and deficient MEFs; format: cell-based, mouse
Protocol: Cell viability was measured using an annexin V staining kit (BD Biosciences, San Jose, Calif., USA). Briefly, Atg7 wild-type (Atg7+/+ or Atg7-wt) and Atg7 deficient (Atg7−/− or Atg7-ko) mouse embryonic fibroblasts (MEFs) were treated with the selected alkaloids for 24 h. Cells were then harvested and analysed by multiparametric flow cytometry using FITC-Annexin V and Propidium iodide staining (BD Biosciences, San Jose, Calif., USA) according to the manufacturer's instructions. Flow cytometry was then carried out using a FACSCalibur flow cytometer (BD Biosciences, San Jose, Calif., USA). Data acquisition and analysis was performed with CellQuest (BD Biosciences, San Jose, Calif., USA). Data were obtained from three independent experiments.

[3] = tested on: a panel of cancer and normal cells; test: GFP-LC3 puncta formation in a panel of cancer and normal cells; format: cell-based, human; conditions: fluorescent microscopy (FIG. 2c)
Protocol: GFP-LC3 puncta formation was quantified as previously described. In brief, GFP-LC3 transfected cells grown on coverslips in a 6-well plate were treated with or without 20 μM of […], 10 μM of isoliensinine, dauricine, cepharanthine, hernandezine or thalidezine for 4 hours, the cells were then fixed in 4% paraformaldehyde for 20 minutes at room temperature and then rinsed with PBS. Slides were mounted with FluorSaveTM mounting media (Calbiochem, San Diego, Calif.) and examined by fluorescence microscopy. The number of GFP-positive cells with GFP-LC3 puncta formation was examined under the Nikon ECLIPSE 80i microscope. Representative images were captured with CCD digital camera Spot RT3TM (Diagnostic Instruments, Inc., Melville, N.Y.). To quantify for autophagy, the percentage of cells with punctate GFP-LC3 fluorescence was calculated by counting the number of the cells with punctate GFP-LC3 fluorescence in GFP-positive cells. A minimum of 150 cells from 3 randomly selected fields was scored.

[4] = tested on: Atg7-knockout (Atg7-ko or Atg7−/−) mouse embryonic fibroblasts; test: GFP-LC3 puncta in Atg7 deficient MEFs; format: cell-based; conditions: 20 μM liensinine or 10 μM others, 24 h (FIGS. 4a to 4c)
Protocol: GFP-LC3 puncta formation was quantified as previously described. In brief, both Atg7 wild-type (Atg7-wt or Atg7+/+) and deficient (Atg7-/-) mouse embryonic fibroblasts (MEFs) were transfected with GFP-LC3 plasmid and then grown on coverslips in a 6-well plate. The cells were then treated with 20 μM of […], 10 μM of isoliensinine, 10 μM of dauricine, 10 μM of cepharanthine, hernandezine or 10 μM of thalidezine. for 24 h. The cells were then fixed in 4% paraformaldehyde for 20 minutes at room temperature and then rinsed with PBS. Slides were mounted with FluorSaveTM mounting media (Calbiochem, San Diego, Calif.) and examined by fluorescence microscopy. The number of GFP-positive cells with GFP-LC3 puncta formation was examined under the Nikon ECLIPSE 80i microscope. Representative images were captured with CCD digital camera Spot RT3TM (Diagnostic Instruments, Inc., Melville, N.Y.). To quantify for autophagy, the percentage of cells with punctate GFP-LC3 fluorescence was calculated by counting the number of the cells with punctate GFP-LC3 fluorescence in GFP-positive cells. A minimum of 150 cells from 3 randomly selected fields were scored.

[5] = Homo sapiens, 72 h, read-out: mean IC50 value (cell cytotoxicity)
[6] = MEFs, 24 h, annexin V/PI flow cytometry (FIGS. 6a to 6c)

Compound | pIC50 [1, 5] | cytotoxic effect to autophagy deficient cells (Atg7−/−) versus Atg7 wild-type [2, 6] | formation of GFP-LC3 puncta [3] | GFP-LC3 puncta formation in Atg7-knockout cells [4] | pIC50 [1] | cytotoxic effect to autophagy deficient cells (Atg7−/−) versus Atg7 wild-type [2]
COc1cc2c(cc1OC)[C@@H](Cc1ccc(Oc3cc(C[C@@H]4c5cc(OC)c(OC)cc5CCN4C)ccc3O)cc1)N(C)CC2 [dauricine] | 4.21 to 5.34 | less cytotoxicity | increased | not |  | 
COc1ccc2cc1Oc1ccc(cc1)C[C@H]1c3cc(c(OC)cc3CCN1C)Oc1c(OC)c(OC)c(OC)c3c1[C@H](C2)N(C)CC3 [hernandezine] | 4.21 to 5.34 |  | increased | not |  | 
COc1ccc(C[C@@H]2c3cc(Oc4cc(C[C@@H]5c6cc(O)c(OC)cc6CCN5C)ccc4O)c(OC)cc3CCN2C)cc1 [isoliensinine] | 4.21 to 5.34 | less cytotoxicity | increased | not |  | 
COc1cc2c(cc1OC)[C@@H](Cc1ccc(O)c(Oc3cc4c(cc3OC)CCN(C)[C@@H]4Cc3ccc(O)cc3)c1)N(C)CC2 [liensinine] |  | less cytotoxicity | increased | not | 4.21 to 5.34 | 
thalidezine |  |  | increased | not | 4.21 to 5.34 | less cytotoxicity
